Target: T1, Human M4 (Homo sapiens, UniProt P08173)
T1 construct: expressed in transfected cells
T1 sequence (P08173 1-479): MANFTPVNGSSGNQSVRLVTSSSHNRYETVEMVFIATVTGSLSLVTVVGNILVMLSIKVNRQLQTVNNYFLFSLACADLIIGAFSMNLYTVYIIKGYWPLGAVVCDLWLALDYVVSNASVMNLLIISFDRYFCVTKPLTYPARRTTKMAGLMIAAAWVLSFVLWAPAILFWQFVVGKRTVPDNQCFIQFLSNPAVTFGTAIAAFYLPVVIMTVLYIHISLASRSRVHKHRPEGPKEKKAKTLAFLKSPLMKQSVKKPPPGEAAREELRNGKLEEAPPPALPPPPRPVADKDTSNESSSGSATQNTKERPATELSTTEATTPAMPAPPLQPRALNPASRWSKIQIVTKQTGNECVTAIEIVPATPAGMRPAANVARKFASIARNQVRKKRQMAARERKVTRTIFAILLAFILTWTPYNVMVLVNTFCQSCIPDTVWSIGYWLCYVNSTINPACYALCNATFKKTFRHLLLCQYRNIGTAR
Assay: mAChR M4 cell-based functional assay (calcium flux, potentiation of EC20 acetylcholine response), hM4-Gqi5 CHO-K1 cells
Settings: Table 3; for Emax at 30 µM: CHO-K1, Human M4, % ACh maximum at 30 μM, read-out: Emax (% ACh maximum at 30 μM); for EC50: potentiation of EC20 acetylcholine response, calcium flux, CHO-K1 cells, read-out: Human M4 EC50
Outline: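 Positive allosteric modulation was scored as a concentration-dependent rise in the response to an EC20 dose of acetylcholine, added 144 s after the compound. Human M4-Gqi5 CHO-K1 cells carried Fluo-4 dye, and compounds ran as 11-point, 3-fold dilution series. EC50 and Emax came from four-parameter logistic fits of the FDSS fluorescence-ratio traces.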

| SMILES | Emax at 30 µM [%] | EC50 [µM] |
| --- | --- | --- |
| Cc1c(N2CCc3ncc(-c4cnn(C5CC5)c4)cc3C2)nn2c(C(F)(F)F)nnc2c1C [Compound 234, 3-(1-cyclopropyl-1H-pyrazol-4-yl)-6-(7,8-dimethyl-3-(trifluoromethyl)-[1,2,4]triazolo[4,3-b]pyridazin-6-yl)-5,6,7,8-tetrahydro-1,6-naphthyridine] | 78 | 0.33 |
| Cc1c(N2CCc3ncc(-c4cnn(C5CCC5)c4)cc3C2)nn2c(C(F)(F)F)nnc2c1C [Compound 235, 3-(1-cyclobutyl-1H-pyrazol-4-yl)-6-(7,8-dimethyl-3-(trifluoromethyl)-[1,2,4]triazolo[4,3-b]pyridazin-6-yl)-5,6,7,8-tetrahydro-1,6-naphthyridine] | 76 | 0.788 |
| Cc1cnn(C)c1-c1cnc2c(c1)CN(c1nn3c(C(F)(F)F)nnc3c(C)c1C)CC2 [Compound 236, 3-(1,4-dimethyl-1H-pyrazol-5-yl)-6-(7,8-dimethyl-3-(trifluoromethyl)-[1,2,4]triazolo[4,3-b]pyridazin-6-yl)-5,6,7,8-tetrahydro-1,6-naphthyridine] | 65 | 0.165 |
| CCn1cc(-c2cnc3c(c2)CN(c2nn4c(C(F)(F)F)nnc4c(C)c2C)CC3)cn1 [Compound 237, 6-(7,8-dimethyl-3-(trifluoromethyl)-[1,2,4]triazolo[4,3-b]pyridazin-6-yl)-3-(1-ethyl-1H-pyrazol-4-yl)-5,6,7,8-tetrahydro-1,6-naphthyridine] | 84 | 0.332 |
| Cc1c(N2CCc3ncc(-c4cnn(Cc5ccccc5)c4)cc3C2)nn2c(C(F)(F)F)nnc2c1C [Compound 238, 3-(1-benzyl-1H-pyrazol-4-yl)-6-(7,8-dimethyl-3-(trifluoromethyl)-[1,2,4]triazolo[4,3-b]pyridazin-6-yl)-5,6,7,8-tetrahydro-1,6-naphthyridine] | 55 | 1.31 |
| COc1cnc(Cl)c(-c2cnc3c(c2)CN(c2nn4c(C(F)(F)F)nnc4c(C)c2C)CC3)c1 [Compound 239, 3-(2-chloro-5-methoxypyridin-3-yl)-6-(7,8-dimethyl-3-(trifluoromethyl)-[1,2,4]triazolo[4,3-b]pyridazin-6-yl)-5,6,7,8-tetrahydro-1,6-naphthyridine] | 57 | 0.613 |
| Cc1c(N2CCc3ncc(-c4cnn(C)c4)cc3C2)nn2c(C(F)(F)F)nnc2c1C [Compound 240, 6-(7,8-dimethyl-3-(trifluoromethyl)-[1,2,4]triazolo[4,3-b]pyridazin-6-yl)-3-(1-methyl-1H-pyrazol-4-yl)-5,6,7,8-tetrahydro-1,6-naphthyridine] | 77 | 0.158 |
| Cc1c(N2CCc3ncc(-c4ccc(N(C)C)nc4)cc3C2)nn2c(C(F)(F)F)nnc2c1C [Compound 241, 5-(6-(7,8-dimethyl-3-(trifluoromethyl)-[1,2,4]triazolo[4,3-b]pyridazin-6-yl)-5,6,7,8-tetrahydro-1,6-naphthyridin-3-yl)-N,N-dimethylpyridin-2-amine] | 61 | 1.23 |
| Cc1c(N2CCc3ncc(-n4nccc4C)cc3C2)nn2c(C(F)(F)F)nnc2c1C [Compound 242, 6-(7,8-dimethyl-3-(trifluoromethyl)-[1,2,4]triazolo[4,3-b]pyridazin-6-yl)-3-(5-methyl-1H-pyrazol-1-yl)-5,6,7,8-tetrahydro-1,6-naphthyridine] | 80 | 0.696 |
| Cc1cc(C)n(-c2cnc3c(c2)CN(c2nn4c(C(F)(F)F)nnc4c(C)c2C)CC3)n1 [Compound 243, 3-(3,5-dimethyl-1H-pyrazol-1-yl)-6-(7,8-dimethyl-3-(trifluoromethyl)-[1,2,4]triazolo[4,3-b]pyridazin-6-yl)-5,6,7,8-tetrahydro-1,6-naphthyridine] | 77 | 0.729 |
| Cc1c(N2CCc3ncc(-n4cccc4)cc3C2)nn2c(C(F)(F)F)nnc2c1C [Compound 244, 6-(7,8-dimethyl-3-(trifluoromethyl)-[1,2,4]triazolo[4,3-b]pyridazin-6-yl)-3-(1H-pyrrol-1-yl)-5,6,7,8-tetrahydro-1,6-naphthyridine] | 86 | 0.546 |
| Cc1c(N2CCc3ncc(-c4ccc(F)nc4)cc3C2)nn2c(C(F)(F)F)nnc2c1C [Compound 245, 6-(7,8-dimethyl-3-(trifluoromethyl)-[1,2,4]triazolo[4,3-b]pyridazin-6-yl)-3-(6-fluoropyridin-3-yl)-5,6,7,8-tetrahydro-1,6-naphthyridine] | 80 | 0.68 |
| Cc1c(N2Cc3cc(C(F)(F)F)cnc3C(C)C2)nn2cnnc2c1C (centres unmarked) [Compound 246, 6-(7,8-dimethyl-[1,2,4]triazolo[4,3-b]pyridazin-6-yl)-8-methyl-3-(trifluoromethyl)-5,6,7,8-tetrahydro-1,6-naphthyridine] | 90 | 0.408 |
| Cc1c(N2CCc3ncc(-n4cccn4)cc3C2)nn2c(C(F)(F)F)nnc2c1C [Compound 247, 6-(7,8-dimethyl-3-(trifluoromethyl)-[1,2,4]triazolo[4,3-b]pyridazin-6-yl)-3-(1H-pyrazol-1-yl)-5,6,7,8-tetrahydro-1,6-naphthyridine] | 74 | 0.308 |
| Cc1c(N2CCc3ncc(-n4ccc5ccccc54)cc3C2)nn2c(C(F)(F)F)nnc2c1C [Compound 248, 6-(7,8-dimethyl-3-(trifluoromethyl)-[1,2,4]triazolo[4,3-b]pyridazin-6-yl)-3-(1H-indol-1-yl)-5,6,7,8-tetrahydro-1,6-naphthyridine] | 58 | 2.31 |
| Cc1c(N2CCc3ncc(-c4ccc(N5CC[C@@H](F)C5)nc4)cc3C2)nn2c(C(F)(F)F)nnc2c1C [Compound 249, (R)-6-(7,8-dimethyl-3-(trifluoromethyl)-[1,2,4]triazolo[4,3-b]pyridazin-6-yl)-3-(6-(3-fluoropyrrolidin-1-yl)pyridin-3-yl)-5,6,7,8-tetrahydro-1,6-naphthyridine] | 65 | 1.21 |
| Cc1c(N2CCc3ncc(-c4ccc(N5CC[C@H](F)C5)nc4)cc3C2)nn2c(C(F)(F)F)nnc2c1C [Compound 250, (S)-6-(7,8-dimethyl-3-(trifluoromethyl)-[1,2,4]triazolo[4,3-b]pyridazin-6-yl)-3-(6-(3-fluoropyrrolidin-1-yl)pyridin-3-yl)-5,6,7,8-tetrahydro-1,6-naphthyridine] | 60 | 1.25 |
| Cc1c(N2CCc3ncc(-c4ccnn4C)cc3C2)nn2c(C(F)(F)F)nnc2c1C [Compound 251, 6-(7,8-dimethyl-3-(trifluoromethyl)-[1,2,4]triazolo[4,3-b]pyridazin-6-yl)-3-(1-methyl-1H-pyrazol-5-yl)-5,6,7,8-tetrahydro-1,6-naphthyridine] | 83 | 0.169 |
| Cc1c(N2CCc3ncc(-c4ccns4)cc3C2)nn2c(C(F)(F)F)nnc2c1C [Compound 252, 5-(6-(7,8-dimethyl-3-(trifluoromethyl)-[1,2,4]triazolo[4,3-b]pyridazin-6-yl)-5,6,7,8-tetrahydro-1,6-naphthyridin-3-yl)isothiazole] | 80 | 0.14 |
